The target of assay [1] is T1, GSK-3β (Oryctolagus cuniculus, UniProt G1T8E2).
T1 construct: isolated from a strain of E. coli that carries a clone expressing GSK-3β derived from a rabbit skeletal muscle cDNA library [34]
The assay is described as follows: GSK-3β kinase assay. The format is biochemical, rabbit. Here is the method:
GSK-3 was obtained from New England Biolabs (UK) Ltd., Hitchin, Herts. The recombinant enzyme was isolated from a strain of E. coli that carries a clone expressing GSK-3β derived from a rabbit skeletal muscle cDNA library. Inhibition of GSK-3 function was assessed by measurement of phosphorylation of CREB phosphopeptide KRREILSRRPpSYR in the presence of test compounds. Using a 96-well assay format, GSK3 (7.5 U) was incubated for 30 min at 30° C. in a total volume of 25 μL in 20 mM MOPS pH 7.2, 25 mM β-glycerophosphate, 5 mM EGTA, 1 mM DTT, 1 mM […], 40 μM CREB peptide, 15 mM MgCl2 and 100 μM ATP (containing 0.25 μCi [γ-^32P]-ATP) in the presence of varying concentrations of test compound. The samples were transferred to 96-well p81 filter plates (Whatman Polyfiltronics, Kent, UK), and the plates were washed 4 times with 200 μL/well of 75 mM aq orthophosphoric acid. Scintillation liquid (50 μL) was added to each well, and incorporated radioactivity for each sample was determined using a scintillation counter (TopCount, Packard Instruments, Pangbourne, Berks, UK).

Assay [2] has as its system glycogen synthase activity in 3T3 mouse adipocytes. The assay is described as follows: Glycogen synthase (GS) assay in 3T3 mouse adipocytes. The format is cell-based. Here is the method: Mouse pre-adipocytes 3T3-F442A were seeded at 9×10^5 cells per 10 cm dish in DMEM 10% FCS, containing penicillin/streptomycin. When 90% confluent, the same medium was supplemented with 1 μg/mL insulin. After 3-5 days (when most cells were differentiated) insulin was removed and 4 days later the cells were ready to use.
Cells on 10 cm dishes (Human Embryonic Kidney (HEK) 293 cells, L6 rat myocytes, or 3T3 mouse adipocytes) were treated with different concentrations of GSK3-inhibitors or DMSO vehicle for 90 min. Incubation medium was removed and cells were washed with ice-cold phosphate-buffered saline (PBS) prior to lysis on ice in 50 mM HEPES, pH 7.5, 10 mM EDTA, 100 mM NaF, 5 mM DTT, protease inhibitor cocktail (Sigma). After a freeze/thaw cycle the samples are sonicated for 10 sec and centrifuged at 15,000 g for 10 min at 4° C. Lysate supernatants were snap-frozen on liquid nitrogen and stored at −80° C. Lysates were assayed for glycogen synthase activity in buffer (50 mM Tris-HCl, pH 7.8, 20 mM EDTA, 25 mM NaF, 5 mM DTT, 1% glycogen, 0.3 mM UDP-glucose and 0.06 μCi of [^14C]-UDP-glucose in the presence of 0.1 or 10 mM glucose-6-phosphate. The reaction was carried out for 30 min at 30° C. 70 μL of the reaction mixture (total volume 90 μL) were transferred to a GFC 96-well filter plate (bottom sealed with foil), containing 140 μL 96% ethanol. The GFC plate was incubated for 1 h on ice and than washed with 66% ethanol. To each well 100 μL scintillant liquid was added and the radioactivity of the samples was measured using a scintillation counter (Topcount, HP). Data are expressed as -fold increase in glycogen synthase activity ratios over those of control samples.

Assay [3] relates to β-catenin-LEF/TCF transcriptional activity in HEK293 cells. Description: β-Catenin-LEF/TCF regulated reporter gene assay. The format is cell-based, human. The conditions noted are these: up to 10 μM. From the text: Furthermore, the effect of compound XIV on the β-catenin-dependent transcriptional activity, as measured in a luciferase based reporter gene assay, was studied.
HEK293 cells were transfected with either β-catenin-LEF/TCF-sensitive or β-catenin-LEF/TCF-insensitive reporter vector (Upstate Biotechnology, Inc.) using Lipofectamine Plus reagent (GibcoBRL) according to the manufacturer's instructions. The next day, cells were trypsinized, washed into serum-free medium, counted and seeded at 40,000 cells per well in a 96-well plate. Subsequent to cell attachment, LiCl or GSK-3 inhibitor compound were added to the medium to the required concentrations. Control cells were DMSO vehicle treated. 16 h after inhibitor addition, cells were analyzed for luciferase activity using the Steady-Glo Luciferase assay system (Promega) according to the manufacturer's instructions.
In general terms: A reporter such as luciferase makes a cellular process visible.

In assay [4] the test system is ZDF fa/fa rats. The assay is described as follows: Oral glucose tolerance test (OGTT). The conditions noted are these: 5 mg/kg i.v. at −270 and −30 min, 2 g/kg oral glucose. The format is in vivo, rat. The procedure: Test compound was administrated in 10-11 weeks old ZDF rats at 5 mg/kg i.v. at −270 and −30 min. At 0 min 2 g/kg oral glucose load was given and blood samples were collected at 15 min intervals to determine the blood glucose levels.
For the OGTT male ZDF fa/fa rats (Charles River, USA), 10-11 weeks old, were used. After 15 h fasting the animals were dosed intravenously with 5 mg/kg test compound in dosing vehicle, or with dosing vehicle (10% DMSO, 90% PEG-400) only at −270 and −30 min. At 0 min the rats were given 2 g/kg glucose by oral gavage. Plasma samples were taken before and every 15 min after the OGTT for determination of blood glucose.

The test system of assay [5] is PKA. Description: Protein kinase panel selectivity screen, PKA. The format is biochemical. The conditions noted are these: 1 μM compound; [ATP] 5 μM. The procedure:
(§1) The names of the 29 kinases comprising the selectivity screen, as well as the ATP concentrations used in each kinase case, are given in Table 5. The kinase assays were carried out as described previously.
(§2) Compound XIV at a concentration of 1 μM was screened in the 29-kinase panel (Dundee University) and the results are shown bellow in Table 6.

Assay [6] concerns the target T2, CHK1 (Homo sapiens, UniProt O14757).
T2 construct: Dundee University (screening panel)
Description: Protein kinase panel selectivity screen, CHK1. The format is biochemical. The conditions noted are these: 1 μM compound; [ATP] 20 μM. Here is the method: as §1, §2

Assay [7] has as its system CK2. The assay is described as follows: Protein kinase panel selectivity screen, CK2. The conditions noted are these: 1 μM compound; [ATP] 5 μM. The assay is classed as biochemical. The procedure:
as §1, §2

Assay [8] addresses T3, PHK (Oryctolagus cuniculus, UniProt P00518).
T3 construct: Dundee University (screening panel)
The assay is described as follows: Protein kinase panel selectivity screen, PHK. The format is biochemical. The conditions noted are these: 1 μM compound; [ATP] 20 μM. Here is the method:
as §1, §2

T1 sequence (G1T8E2 1-432): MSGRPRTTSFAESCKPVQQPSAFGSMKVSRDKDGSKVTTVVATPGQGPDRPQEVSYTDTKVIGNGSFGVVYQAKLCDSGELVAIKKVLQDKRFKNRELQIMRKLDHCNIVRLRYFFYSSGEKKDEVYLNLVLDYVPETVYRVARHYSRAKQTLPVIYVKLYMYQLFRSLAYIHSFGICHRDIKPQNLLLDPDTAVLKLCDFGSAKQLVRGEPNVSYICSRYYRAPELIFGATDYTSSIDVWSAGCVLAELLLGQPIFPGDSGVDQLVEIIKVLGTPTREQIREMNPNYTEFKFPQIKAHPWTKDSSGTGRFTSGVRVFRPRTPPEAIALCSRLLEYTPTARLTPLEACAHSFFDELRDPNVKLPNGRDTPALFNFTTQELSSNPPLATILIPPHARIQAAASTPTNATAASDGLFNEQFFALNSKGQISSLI
T2 sequence (O14757 whole entry, species assumed): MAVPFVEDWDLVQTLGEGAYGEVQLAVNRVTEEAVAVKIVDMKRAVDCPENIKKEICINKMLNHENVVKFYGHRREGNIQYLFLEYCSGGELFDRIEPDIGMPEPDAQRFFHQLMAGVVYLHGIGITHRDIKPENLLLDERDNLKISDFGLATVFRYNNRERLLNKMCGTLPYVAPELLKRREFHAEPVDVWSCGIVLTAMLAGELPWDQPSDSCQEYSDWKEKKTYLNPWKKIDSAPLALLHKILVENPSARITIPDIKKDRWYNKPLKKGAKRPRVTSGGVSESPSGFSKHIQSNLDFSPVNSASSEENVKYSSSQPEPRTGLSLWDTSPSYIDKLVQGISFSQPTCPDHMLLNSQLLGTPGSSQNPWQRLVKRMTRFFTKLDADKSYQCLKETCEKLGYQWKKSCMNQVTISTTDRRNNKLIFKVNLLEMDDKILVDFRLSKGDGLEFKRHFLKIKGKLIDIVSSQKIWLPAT

As a reminder, the Ki is a measure of affinity in units of concentration, obtained from inhibition or displacement. Usually IC50 stands for the concentration needed to halve the response being measured. Usually EC50 stands for the midpoint of the concentration-response curve. Broadly, the fold induction is the signal under treatment as a multiple of the control signal. Higher therefore signals a large rise in signal. `Clc1ccc(Nc2nccc(-c3nccs3)n2)cn1` [Compound XIV, (6-Chloro-pyridin-3-yl)-(4-thiazol-2-yl-pyrimidin-2-yl)-amine]: the inhibition constant Ki in assay [1] (read-out: Ki GSK3) turned out to be 16 nM. Besides, the IC50 in assay [1] (read-out: Kinase inhibition IC50 GSK3β) is 176 nM. Moreover, in assay [2] (3T3 adipocytes, 5 μM), the “Activation of GS relative to that induced by 40 mM LiCl” value is given as “approximately 2 fold”. For the same compound, the EC50 in assay [2] (Mus musculus, Adipocyte, 3T3 adipocytes, from dose-response curves, read-out: EC50 activation of glycogen synthase) came to 5000 ± 2300 nM. This compound also showed a fold induction at 0.2 µM in assay [2] (Mus musculus, NIH3T3, 3T3 cells, 0.2 μM) of 1.1. This compound displayed a fold induction at 1 µM in assay [2] (Mus musculus, NIH3T3, 3T3 cells, 1 μM) of 2.5. This compound had a fold induction at 5 µM in assay [2] (Mus musculus, NIH3T3, 3T3 cells, 5 μM) of 3.7. In assay [2] (Mus musculus, NIH3T3, 3T3 cells, 10 μM), this compound yielded a fold induction at 10 µM of 4.8. Moreover, the “Activity of glycogen synthase (fractional velocity)” value in assay [2] (mouse adipocyte cells, ratio of activity at 0.1 and 10 mM glucose-6-phosphate) was “increased the activity of glycogen synthase”. Also, the “β-catenin transcriptional activity (luciferase reporter)” value in assay [3] is on record as “No induction”. In assay [4], the “Decrease of absolute AUC level (blood glucose)” value turned out to be 29%, the “Decrease of reactive AUC level (blood glucose)” value is reported as 44% and the Glucose tolerance result is recorded as “improved the glucose tolerance in ZDF rats significantly”. For the same compound, the “% Activity PKA” value in assay [5] stood at 76 ± 3%. In assay [6], the activity at 1 µM was 78 ± 4%. In addition, the “% Activity CK2” value in assay [7] is 84 ± 1%. In addition, the activity at 1 µM in assay [8] amounted to 120 ± 7%.

The record behind these values is patent US20080318954A1, “Compounds” (Cyclacel Limited, priority 2004, published 2008).
